Experimental data published in patent publication US20140155389A1, “BICYCLIC INHIBITORS OF ALK” (ABBVIE INC., priority 2011, published 2014).

Biological target: T1, ALK (Homo sapiens, UniProt Q9UM73)
T1 construct: purchased Millipore
Assay: ALK kinase assay (HTRF)
Format: biochemical
Details: apparent Ki from IC50 by Cheng-Prusoff; ALK (Millipore) 3 nM or 4 nM, 50 μM ATP, 1 h at room temperature; read-out: HTRF_ALK Human - Ki

T1 sequence (Q9UM73 19-1620): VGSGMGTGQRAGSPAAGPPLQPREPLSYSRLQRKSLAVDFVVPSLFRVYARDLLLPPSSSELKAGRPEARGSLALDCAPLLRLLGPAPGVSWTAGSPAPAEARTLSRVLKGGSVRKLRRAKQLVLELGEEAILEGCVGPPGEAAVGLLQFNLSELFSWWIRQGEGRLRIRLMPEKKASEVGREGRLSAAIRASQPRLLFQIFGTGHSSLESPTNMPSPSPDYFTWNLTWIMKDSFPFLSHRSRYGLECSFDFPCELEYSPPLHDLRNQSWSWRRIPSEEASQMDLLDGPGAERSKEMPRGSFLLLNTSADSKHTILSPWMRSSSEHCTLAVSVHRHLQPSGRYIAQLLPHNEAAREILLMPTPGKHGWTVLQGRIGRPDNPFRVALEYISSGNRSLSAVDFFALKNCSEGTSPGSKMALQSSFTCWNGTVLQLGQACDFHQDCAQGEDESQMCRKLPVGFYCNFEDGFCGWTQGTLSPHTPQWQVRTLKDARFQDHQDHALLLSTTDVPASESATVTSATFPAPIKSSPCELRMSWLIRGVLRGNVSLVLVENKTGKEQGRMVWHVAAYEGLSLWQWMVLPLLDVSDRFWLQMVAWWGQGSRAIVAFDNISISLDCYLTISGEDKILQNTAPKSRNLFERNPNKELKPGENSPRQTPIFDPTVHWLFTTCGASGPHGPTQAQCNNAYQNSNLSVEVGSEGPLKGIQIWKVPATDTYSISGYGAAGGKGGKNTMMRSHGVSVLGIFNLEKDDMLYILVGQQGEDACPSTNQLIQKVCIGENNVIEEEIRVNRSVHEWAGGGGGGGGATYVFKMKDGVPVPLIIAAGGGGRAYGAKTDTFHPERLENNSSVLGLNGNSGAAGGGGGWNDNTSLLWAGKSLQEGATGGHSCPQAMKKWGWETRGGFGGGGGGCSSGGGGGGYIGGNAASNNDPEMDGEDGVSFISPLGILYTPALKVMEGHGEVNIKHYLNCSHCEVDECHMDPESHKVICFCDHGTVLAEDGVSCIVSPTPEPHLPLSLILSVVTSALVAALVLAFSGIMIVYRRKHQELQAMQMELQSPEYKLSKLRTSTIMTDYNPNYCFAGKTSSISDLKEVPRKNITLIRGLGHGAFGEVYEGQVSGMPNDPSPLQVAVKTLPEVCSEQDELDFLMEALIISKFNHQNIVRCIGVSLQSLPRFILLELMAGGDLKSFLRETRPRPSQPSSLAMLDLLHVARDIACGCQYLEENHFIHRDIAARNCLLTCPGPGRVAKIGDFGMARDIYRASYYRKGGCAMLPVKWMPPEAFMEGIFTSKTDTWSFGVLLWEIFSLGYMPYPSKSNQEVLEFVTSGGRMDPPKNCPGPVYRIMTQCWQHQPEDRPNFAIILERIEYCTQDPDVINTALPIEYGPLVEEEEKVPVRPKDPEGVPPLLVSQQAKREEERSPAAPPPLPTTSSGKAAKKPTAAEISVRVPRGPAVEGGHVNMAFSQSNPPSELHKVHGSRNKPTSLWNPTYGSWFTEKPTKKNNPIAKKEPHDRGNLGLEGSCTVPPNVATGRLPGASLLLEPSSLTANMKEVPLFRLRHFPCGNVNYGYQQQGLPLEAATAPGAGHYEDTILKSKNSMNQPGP

Compound	Ki [µM]
O=c1[nH]ncc2cc(N3CCC(O)CC3)nc(Nc3ccc(CN4CCCC4)cc3Cl)c12 [Example 96, 5-{[2-chloro-4-(pyrrolidin-1-ylmethyl)phenyl]amino}-7-(4-hydroxypiperidin-1-yl)pyrido[3,4-d]pyridazin-4(3H)-one]	0.009
O=c1[nH]ncc2cc(N3CC(O)C3)nc(Nc3ccc(CN4CCCC4)cc3Cl)c12 [Example 97, 5-{[2-chloro-4-(pyrrolidin-1-ylmethyl)phenyl]amino}-7-(3-hydroxyazetidin-1-yl)pyrido[3,4-d]pyridazin-4(3H)-one]	0.074
COc1cc(C2CCNCC2)ccc1Nc1nc(Oc2ccccc2Cl)cc2cnnc(O)c12 [Example 98, 7-(2-chlorophenoxy)-5-{[2-methoxy-4-(piperidin-4-yl)phenyl]amino}pyrido[3,4-d]pyridazin-4-ol]	0.009
COc1cc(C2CCNCC2)ccc1Nc1nc(NCC2CC2)cc2cnnc(O)c12 [Example 99, 7-[(cyclopropylmethyl)amino]-5-{[2-methoxy-4-(piperidin-4-yl)phenyl]amino}pyrido[3,4-d]pyridazin-4-ol]	0.006
COc1cc(C2CCNCC2)ccc1Nc1cc(Cc2ccccc2Cl)nc2cn[nH]c(=O)c12 [Example 100, 2-(2-chlorobenzyl)-4-{[2-methoxy-4-(piperidin-4-yl)phenyl]amino}pyrido[2,3-d]pyridazin-5(6H)-one]	0.004
COc1cc(C2CCNCC2)ccc1Nc1cc(Cc2c(Cl)cccc2Cl)nc2cn[nH]c(=O)c12 [Example 101, 2-(2,6-dichlorobenzyl)-4-{[2-methoxy-4-(piperidin-4-yl)phenyl]amino}pyrido[2,3-d]pyridazin-5(6H)-one]	0.001
COc1cc(C2CCNCC2)ccc1Nc1cc(CCN2CCOCC2)nc2cn[nH]c(=O)c12 [Example 102, 4-{[2-methoxy-4-(piperidin-4-yl)phenyl]amino}-2-[2-(morpholin-4-yl)ethyl]pyrido[2,3-d]pyridazin-5(6H)-one]	0.331
O=c1[nH]ncc2cc(Oc3ccccc3Cl)nc(Nc3ccc(N4CCNCC4)cn3)c12 [Example 103, 7-(2-chlorophenoxy)-5-{[5-(piperazin-1-yl)pyridin-2-yl]amino}pyrido[3,4-d]pyridazin-4(3H)-one]	0.02
COc1cc(C2CCNCC2)ccc1Nc1cc(CCC2CC2)nc2cn[nH]c(=O)c12 [Example 104, 2-(2-cyclopropylethyl)-4-{[2-methoxy-4-(piperidin-4-yl)phenyl]amino}pyrido[2,3-d]pyridazin-5(6H)-one]	0.075
COc1cc(C(=O)N2CCCC2)ccc1Nc1nc(Oc2ccccc2Cl)cc2cnnc(O)c12 [Example 105, (4-{[7-(2-chlorophenoxy)-4-hydroxypyrido[3,4-d]pyridazin-5-yl]amino}-3-methoxyphenyl)(pyrrolidin-1-yl)methanone]	> 0.47
CCOc1cc(C2CCNCC2)ccc1Nc1nc(Oc2ccccc2Cl)cc2cn[nH]c(=O)c12 [Example 106, 7-(2-chlorophenoxy)-5-{[2-ethoxy-4-(piperidin-4-yl)phenyl]amino}pyrido[3,4-d]pyridazin-4(3H)-one]	0.021
COc1cc(C2CCNCC2)ccc1Nc1cc(Cc2ccccc2F)nc2cn[nH]c(=O)c12 [Example 107, 2-(2-fluorobenzyl)-4-{[2-methoxy-4-(piperidin-4-yl)phenyl]amino}pyrido[2,3-d]pyridazin-5(6H)-one]	0.016
COc1cc(C2CCNCC2)ccc1Nc1cc(Cc2cccc(Cl)c2Cl)nc2cn[nH]c(=O)c12 [Example 108, 2-(2,3-dichlorobenzyl)-4-{[2-methoxy-4-(piperidin-4-yl)phenyl]amino}pyrido[2,3-d]pyridazin-5(6H)-one]	0.008
COc1cc(C2CCNCC2)ccc1Nc1cc(Cc2c(F)cccc2F)nc2cn[nH]c(=O)c12 [Example 109, 2-(2,6-difluorobenzyl)-4-{[2-methoxy-4-(piperidin-4-yl)phenyl]amino}pyrido[2,3-d]pyridazin-5(6H)-one]	0.006
COc1cc(C2CCNCC2)ccc1Nc1cc(Cc2cc(F)ccc2F)nc2cn[nH]c(=O)c12 [Example 110, 2-(2,5-difluorobenzyl)-4-{[2-methoxy-4-(piperidin-4-yl)phenyl]amino}pyrido[2,3-d]pyridazin-5(6H)-one]	0.016
COc1cc(C2CCNCC2)ccc1Nc1cc(Cc2cccc(F)c2F)nc2cn[nH]c(=O)c12 [Example 111, 2-(2,3-difluorobenzyl)-4-{[2-methoxy-4-(piperidin-4-yl)phenyl]amino}pyrido[2,3-d]pyridazin-5(6H)-one]	0.015
COc1cc(C2CCNCC2)ccc1Nc1cc(Cc2c(F)cccc2Cl)nc2cn[nH]c(=O)c12 [Example 112, 2-(2-chloro-6-fluorobenzyl)-4-{[2-methoxy-4-(piperidin-4-yl)phenyl]amino}pyrido[2,3-d]pyridazin-5(6H)-one]	0.004
COc1ccccc1Nc1nc(Nc2ccc(N3CCNCC3)cc2)cc2cnnc(O)c12 [Example 113, 5-[(2-methoxyphenyl)amino]-7-{[4-(piperazin-1-yl)phenyl]amino}pyrido[3,4-d]pyridazin-4-ol]	0.058
CCOc1cc(N2CCNCC2)ccc1Nc1nc(Oc2ccccc2Cl)cc2cnnc(O)c12 [Example 114, 7-(2-chlorophenoxy)-5-{[2-ethoxy-4-(piperazin-1-yl)phenyl]amino}pyrido[3,4-d]pyridazin-4-ol]	0.008
COc1cc(N2CCNCC2)ccc1Nc1nc(Oc2ccccc2C#N)cc2cn[nH]c(=O)c12 [Example 115, 2-[(5-{[2-methoxy-4-(piperazin-1-yl)phenyl]amino}-4-oxo-3,4-dihydropyrido[3,4-d]pyridazin-7-yl)oxy]benzonitrile]	0.006
COc1cc(CN2CCN(C)CC2)ccc1Nc1cc(Cc2ccccc2Cl)nc2cn[nH]c(=O)c12 [Example 116, 2-(2-chlorobenzyl)-4-({2-methoxy-4-[(4-methylpiperazin-1-yl)methyl]phenyl}amino)pyrido[2,3-d]pyridazin-5(6H)-one]	0.033
O=c1[nH]ncc2cc(Oc3ccccc3Cl)nc(Nc3ccc(N4CCNCC4)cc3OC(F)F)c12 [Example 117, 7-(2-chlorophenoxy)-5-{[2-(difluoromethoxy)-4-(piperazin-1-yl)phenyl]amino}pyrido[3,4-d]pyridazin-4(3H)-one]	0.015
O=c1[nH]ncc2cc(Oc3ccccc3Cl)nc(Nc3ccc(C4CCNCC4)cn3)c12 [Example 118, 7-(2-chlorophenoxy)-5-{[5-(piperidin-4-yl)pyridin-2-yl]amino}pyrido[3,4-d]pyridazin-4(3H)-one]	0.015
COc1cc(N2CCNCC2)ccc1Nc1nc(Oc2ccccc2Cl)cc2c(C)nnc(O)c12 [Example 119, 7-(2-chlorophenoxy)-5-{[2-methoxy-4-(piperazin-1-yl)phenyl]amino}-1-methylpyrido[3,4-d]pyridazin-4-ol]	0.015
N#Cc1cc(N2CCNCC2)ccc1Nc1nc(Oc2ccccc2Cl)cc2cnnc(O)c12 [Example 120, 2-{[7-(2-chlorophenoxy)-4-hydroxypyrido[3,4-d]pyridazin-5-yl]amino}-5-(piperazin-1-yl)benzonitrile]	0.002
